From patent US20260256792A1, “TREATMENT OF CHRONIC SPONTANEOUS URTICARIA BY ADMINISTERING (R)-2-[3-[4-AMINO-3-(2-FLUORO-4-PHENOXY-PHENYL)PYRAZOLO[3,4-D]PYRIMIDIN-1-YL]PIPERIDINE-1-CARBONYL]-4-METHYL-4-[4-(OXETAN-3-YL)PIPERAZIN-1-YL]PENT-2-ENENITRILE” (priority 2023, published 2026)

Tested on: moderate-to-severe chronic spontaneous urticaria (CSU)
Experiment: Phase 2 CSU study: urticaria activity score over 7 days (UAS7)
Assay type: in vivo, human
Design: key to UAS7 Median / UAS7 Change from baseline Median / UAS7 change from baseline, Q1 / UAS7 change from baseline, Q3 / UAS7 change from baseline, Max / UAS7 Change from baseline LS Mean (SE): UAS7 points; daily UAS score ranges 0–6 points/day, over 7 days
Description: The study comprises a 12 week, randomized, double-blind, placebo-controlled, multi-center, dose-ranging efficacy and safety phase, followed by a 40 week open label extension (OLE) phase (see FIG. 1). The study consists of three phases and an optional OLE phase. […] Clinically, CSU is characterized by the spontaneous and recurrent appearance of pruritic hives. The proposed primary endpoints were the UAS7 at Week 12 in EU and EU reference countries and the ISS7 in the US. Regardless of where a participant was from, all assessments were the same. The UAS7 score is a composite score containing both the HSS7 and the ISS7. This allowed a global assessment of the two key components of urticaria: hives and itch. […] The UAS is a validated PRO measure. […] The daily UAS scores range from 0 to 6 point/day. […] Patients were to complete the UAS using the e-diary. […] The following secondary endpoints were to be analyzed using the same approach as for the primary endpoint: • Change from baseline in UAS7 at Week 4 • Change from baseline in UAS7 at Week 12 (for US and US reference countries) • Change from baseline in ISS7 at Week 12 (except US and US reference countries) • Change from baseline in HSS7 at Week 12 The following responder secondary endpoints were to be analyzed using the Cochran-Mantel-Haenszel test adjusted by region: • Proportion of participants with UAS7<6 at Week 12 • Proportion of participants with UAS7=0 at Week 12 Participants who received selected prohibited medications and/or rescue medications were to be considered as non-responders for time points after the medication usage. For other participants, all available data including those collected during the off-treatment period were to be used to determine the responder/non-responder status. Missing data were to be considered as non-responders.

[1] = Week 8, 400 mg BID, omalizumab-naive participants
[2] = Week 8, 400 mg QPM, ITT population
[3] = Week 8, 400 mg QPM, Omalizumab-Naïve
[4] = Week 8, 400 mg QPM, Prior Omalizumab Use
[5] = Week 8, 400 mg QPM, omalizumab-naive participants
[6] = Week 8, 400 mg TID, ITT population
[7] = Week 8, 400 mg TID, Omalizumab-Naïve
[8] = Week 8, 400 mg TID, Prior Omalizumab Use
[9] = Week 8, 400 mg TID, omalizumab-naive participants
[10] = Week 9, 400 mg BID, ITT population
[11] = Week 9, 400 mg BID, Omalizumab-Naïve
[12] = Week 9, 400 mg BID, Prior Omalizumab Use
[13] = Week 9, 400 mg BID, omalizumab-naive participants
[14] = Week 9, 400 mg QPM, ITT population
[15] = Week 9, 400 mg QPM, Omalizumab-Naïve

## CC(C)(C=C(C#N)C(=O)N1CCC[C@@H](n2nc(-c3ccc(Oc4ccccc4)cc3F)c3c(N)ncnc32)C1)N1CCN(C2COC2)CC1 [rilzabrutinib, (R)-2-[3-[4-amino-3-(2-fluoro-4-phenoxy-phenyl)pyrazolo[3,4-d]pyrimidin-1-yl]piperidine-1-carbonyl]-4-methyl-4-[4-(oxetan-3-yl)piperazin-1-yl]pent-2-enenitrile]
[1]
  RRD (%) for rilzabrutinib vs. placebo, UAS7 reduction of 10 points or more: 24.0 %
  Responder, UAS7 reduction from baseline of 10 points or more: 21 (60.0) n (%)
[2]
  Non-responder, UAS7 reduction from baseline of 10 points or more: 21 (55.3) n (%)
  OR for rilzabrutinib vs. placebo, UAS7 reduction of 10 points or more: 1.257
  RRD (%) for rilzabrutinib vs. placebo, UAS7 reduction of 10 points or more: 5.3 %
  Responder, UAS7 reduction from baseline of 10 points or more: 17 (44.7) n (%)
[3]
  UAS7 Change from baseline Mean (SD): −10.63 (9.70)
  UAS7 Change from baseline Median: −10.80
  UAS7 Median: 21.00
  UAS7 Percent change from baseline Mean (SD): −33.68 (30.26) %
  UAS7 Percent change from baseline Median: −31.82%
[4]
  UAS7 Change from baseline Mean (SD): −25.00 (NC)
  UAS7 Change from baseline Median: −25.00
  UAS7 Mean (SD): 16.00 (NC)
  UAS7 Median: 16.00
  UAS7 Percent change from baseline Mean (SD): −60.98 (NC) %
  UAS7 Percent change from baseline Median: −60.98%
[5]
  Non-responder, UAS7 reduction from baseline of 10 points or more: 21 (56.8) n (%)
  OR for rilzabrutinib vs. placebo, UAS7 reduction of 10 points or more: 1.331
  RRD (%) for rilzabrutinib vs. placebo, UAS7 reduction of 10 points or more: 6.6 %
  Responder, UAS7 reduction from baseline of 10 points or more: 16 (43.2) n (%)
[6]
  Non-responder, UAS7 reduction from baseline of 10 points or more: 14 (34.1) n (%)
  RRD (%) for rilzabrutinib vs. placebo, UAS7 reduction of 10 points or more: 23.2 %
  Responder, UAS7 reduction from baseline of 10 points or more: 27 (65.9) n (%)
[7]
  UAS7 Change from baseline Mean (SD): −16.89 (10.13)
  UAS7 Change from baseline Median: −15.17
  UAS7 Mean (SD): 13.36 (9.81)
  UAS7 Median: 14.00
  UAS7 Percent change from baseline Mean (SD): −55.66 (31.25) %
  UAS7 Percent change from baseline Median: −55.83%
[8]
  UAS7 Change from baseline Median: −25.58
  UAS7 Mean (SD): 7.50 (11.26)
  UAS7 Median: 3.00
  UAS7 Percent change from baseline Mean (SD): −78.96 (25.66) %
  UAS7 Percent change from baseline Median: −84.90%
[9]
  Non-responder, UAS7 reduction from baseline of 10 points or more: 13 (37.1) n (%)
  OR for rilzabrutinib vs. placebo, UAS7 reduction of 10 points or more: 2.815
  RRD (%) for rilzabrutinib vs. placebo, UAS7 reduction of 10 points or more: 25.7 %
  Responder, UAS7 reduction from baseline of 10 points or more: 22 (62.9) n (%)
[10]
  Non-responder, UAS7 reduction from baseline of 10 points or more: 20 (48.8) n (%)
  OR for rilzabrutinib vs. placebo, UAS7 reduction of 10 points or more: 1.471
  RRD (%) for rilzabrutinib vs. placebo, UAS7 reduction of 10 points or more: 10.6 %
  Responder, UAS7 reduction from baseline of 10 points or more: 21 (51.2) n (%)
[11]
  UAS7 Change from baseline Median: −17.00
  UAS7 Mean (SD): 14.64 (14.43)
  UAS7 Percent change from baseline Mean (SD): −53.27 (40.38) %
  UAS7 Percent change from baseline Median: −59.77%
[12]
  UAS7 Change from baseline Mean (SD): −20.83 (19.15)
  UAS7 Change from baseline Median: −27.00
  UAS7 Mean (SD): 11.17 (15.78)
  UAS7 Median: 1.00
  UAS7 Percent change from baseline Mean (SD): −60.63 (52.86) %
  UAS7 Percent change from baseline Median: −97.62%
[13]
  Non-responder, UAS7 reduction from baseline of 10 points or more: 17 (48.6) n (%)
  OR for rilzabrutinib vs. placebo, UAS7 reduction of 10 points or more: 1.764
  RRD (%) for rilzabrutinib vs. placebo, UAS7 reduction of 10 points or more: 16.0 %
  Responder, UAS7 reduction from baseline of 10 points or more: 18 (51.4) n (%)
[14]
  Non-responder, UAS7 reduction from baseline of 10 points or more: 20 (52.6) n (%)
  OR for rilzabrutinib vs. placebo, UAS7 reduction of 10 points or more: 1.452
  RRD (%) for rilzabrutinib vs. placebo, UAS7 reduction of 10 points or more: 8.5 %
  Responder, UAS7 reduction from baseline of 10 points or more: 18 (47.4) n (%)
[15]
  UAS7 Change from baseline Median: −11.00
  UAS7 Mean (SD): 20.25 (10.25)
  UAS7 Median: 19.33
  UAS7 Percent change from baseline Mean (SD): −36.26 (27.83) %
  UAS7 Percent change from baseline Median: −32.58%
